Where a SMILES comes first, the peptide text is derived from it. [ ]: non-standard residue; d: D form. Ala(azulen-1-yl) = N[C@@H](Cc1ccc2cccccc1-2)C(=O)O; Trp(4-CN) = N#Cc1cccc2[nH]cc(C[C@H](N)C(=O)O)c12
System: U2OS cells
Assay: Live cell fluorescence microscopy of peptide uptake
Settings: 37 °C, excitation 340 nm
[1] = 50 µM peptide in OPTI-MEM, 20 min, 0.5% DMSO, washed once, ET460/50m (4CNW) or ET395/25x (AzAla) emission filter

Description: To evaluate their suitability for tracking peptide penetration into cells, 4CNW/AzAla were appended onto the N‐terminus of a well‐characterized cell penetrating peptide, TAT‐NLS P3 (tryptophan was included as a negative control). Human bone osteosarcoma epithelial cells (U2OS) were incubated with peptides 4CNW‐P3, AzAla‐P3, W‐P3 for 20 minutes at a concentration of 50 μM in OPTI‐MEM. A moderate concentration (50 μM) of peptide was required for detection due to current limitations in the sensitivity of our microscopy system. Cells were then washed once with OPTI‐MEM and imaged on a Nikon Ti Eclipse inverted microscope with fluorescence excitation at 340 nm. An ET460/50 m single bandpass emission filter was used to image 4CNW‐P3 and a ET395/25x single bandpass emission filter was used to image AzAla‐P3.
Figure 3 Uptake of 4CNW/AzAla labelled peptides by living cells. a Live cell fluorescence microscopy images of U2OS cells after 20 min incubation with linear/cyclic peptides (50 μM). Fluorescence of peptides is shown in blue (4CNW) or cyan (AzAla). Scale bar: 20 μm. Images were obtained by using fluorescence excitation at 340 nm with a ET460/50 m (4CNW) or ET395/25x (AzAla) single bandpass emission filter and a Plan Fluor 60x/A1.2 WI. b Live cell fluorescence microscopy images of U2OS cells after 24 h incubation with 4CNW‐P4 peptide (50 μM). Fluorescence of peptides is shown in blue (4CNW). Scale bar: 20 μm. Images were obtained by using fluorescence excitation at 340 nm with a ET460/50 m (4CNW) single bandpass emission filter and a Plan Fluor 40X/1.3NA objective. c Flow cytometry of U2OS cells incubated with DMSO, 4CNW‐P3 or 4CNW‐P4 at the indicated times. Fluorescence of a single cell suspension was acquired with a 355 nm laser, 450‐50 detector and FACS‐Diva software. Numbers indicated in graphs show percentage of positive cells.
To assess if 4CNW‐P4 was penetrating cells, U2OS cells were incubated with 50 μM peptide for 24 h. Cells were then imaged by fluorescence microscopy using the same conditions as described above.

SMILES | intracellular fluorescence (cell uptake) [1] | intracellular fluorescence (cell uptake) (50 µM peptide, 24 h, ET460/50m emission filter)
CC(=O)N[C@@H](Cc1c[nH]c2cccc(C#N)c12)C(=O)NCC(=O)N[C@@H](CCCNC(=N)N)C(=O)N[C@@H](CCCCN)C(=O)N[C@@H](CCCCN)C(=O)N[C@@H](CCCNC(=N)N)C(=O)N[C@@H](CCCNC(=N)N)C(=O)N[C@@H](CCC(N)=O)C(=O)N[C@@H](CCCNC(=N)N)C(=O)N[C@@H](CCCNC(=N)N)C(=O)N[C@@H](CCCNC(=N)N)C(=O)N1CCC[C@H]1C(=O)N[C@@H](CCC(N)=O)C(=O)N1CCC[C@H]1C(=O)N[C@@H](CCCCN)C(=O)N[C@@H](CCCCN)C(=O)N[C@@H](CCCCN)C(=O)N[C@@H](CCCNC(=N)N)C(=O)N[C@@H](CCCCN)C(=O)N[C@H](C(N)=O)C(C)C [4CNW‐P3] (Ac-[Trp(4-CN)]GRKKRRQRRRPQPKKKRKV-NH2) | considerable intracellular fluorescence | 
CC[C@H](C)[C@@H]1NC(=O)[C@H](Cc2c[nH]c3ccccc23)NC(=O)[C@H](Cc2c[nH]c3cccc(C#N)c23)NC(=O)[C@H](CC(=O)O)NC(=O)CNC(=O)[C@H](CO)NC(=O)[C@H](CC(=O)O)NC(=O)[C@H](CC(=O)O)NC(=O)[C@H](CC(C)C)NC(=O)[C@H](Cc2ccc(O)cc2)NC(=O)[C@H](CC(C)C)NC(=O)[C@@H](Cc2c[nH]c3ccccc23)NC(=O)CSC[C@@H](C(=O)NCC(N)=O)NC1=O [4CNW‐P4] |  | appreciable intracellular fluorescence
CC(=O)N[C@@H](Cc1ccc2cccccc1-2)C(=O)NCC(=O)N[C@@H](CCCNC(=N)N)C(=O)N[C@@H](CCCCN)C(=O)N[C@@H](CCCCN)C(=O)N[C@@H](CCCNC(=N)N)C(=O)N[C@@H](CCCNC(=N)N)C(=O)N[C@@H](CCC(N)=O)C(=O)N[C@@H](CCCNC(=N)N)C(=O)N[C@@H](CCCNC(=N)N)C(=O)N[C@@H](CCCNC(=N)N)C(=O)N1CCC[C@H]1C(=O)N[C@@H](CCC(N)=O)C(=O)N1CCC[C@H]1C(=O)N[C@@H](CCCCN)C(=O)N[C@@H](CCCCN)C(=O)N[C@@H](CCCCN)C(=O)N[C@@H](CCCNC(=N)N)C(=O)N[C@@H](CCCCN)C(=O)N[C@H](C(N)=O)C(C)C [AzAla‐P3] (Ac-[Ala(azulen-1-yl)]GRKKRRQRRRPQPKKKRKV-NH2) | considerable intracellular fluorescence | 

— paper PMC8597039, “Fluorescent Amino Acid Initiated de novo Cyclic Peptides for the Label‐Free Assessment of Cell Permeability” (Chemmedchem, 2021)
